Measurements published in PubChem BioAssay (NCI).
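Cultured in 96-well plates, cells were exposed to test compound for 48 hours across five concentrations. GI50 marks 50% less growth. TGI is the concentration that stops growth completely.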

What was measured:
Test in all cases: NCI-60 cell line screen, 48 h
SN12C renal = test system: SN12C renal
MDA-MB-231 breast = test system: MDA-MB-231 breast
A549 NSCLC = test system: A549 NSCLC
OVCAR-5 ovarian = test system: OVCAR-5 ovarian
ACHN renal = test system: ACHN renal
SK-OV-3 ovarian = test system: SK-OV-3 ovarian
KM12 colon = test system: KM12 colon
MOLT-4 leukemia = test system: MOLT-4 leukemia
SNB-19 CNS = test system: SNB-19 CNS
HOP-62 NSCLC = test system: HOP-62 NSCLC
IGROV1 ovarian = test system: IGROV1 ovarian
NCI-H23 lung = test system: NCI-H23 lung
PC-3 prostate = test system: PC-3 prostate
BT-549 breast = test system: BT-549 breast
CCRF-CEM leukemia = test system: CCRF-CEM leukemia
MALME-3M melanoma = test system: MALME-3M melanoma
COLO 205 colon = test system: COLO 205 colon
EKVX NSCLC = test system: EKVX NSCLC
SF-539 CNS = test system: SF-539 CNS
U251 CNS = test system: U251 CNS
HS 578T breast = test system: HS 578T breast
LOX IMVI melanoma = test system: LOX IMVI melanoma
NCI-H460 lung = test system: NCI-H460 lung
OVCAR-8 ovarian = test system: OVCAR-8 ovarian
HCT-116 colon = test system: HCT-116 colon
M14 melanoma = test system: M14 melanoma
OVCAR-4 ovarian = test system: OVCAR-4 ovarian
786-0 renal = test system: 786-0 renal
DU-145 prostate = test system: DU-145 prostate
K-562 leukemia = test system: K-562 leukemia
SR leukemia = test system: SR leukemia
NCI/ADR-RES ovarian = test system: NCI/ADR-RES ovarian
NCI-H226 lung = test system: NCI-H226 lung
TK-10 renal = test system: TK-10 renal
NCI-H522 lung = test system: NCI-H522 lung
SF-295 CNS = test system: SF-295 CNS
SK-MEL-5 melanoma = test system: SK-MEL-5 melanoma
UO-31 renal = test system: UO-31 renal
HT29 colon = test system: HT29 colon
RPMI-8226 leukemia = test system: RPMI-8226 leukemia
CAKI-1 renal = test system: CAKI-1 renal
HCC-2998 colon = test system: HCC-2998 colon
MCF7 breast = test system: MCF7 breast
SK-MEL-28 melanoma = test system: SK-MEL-28 melanoma
A498 renal = test system: A498 renal
UACC-257 melanoma = test system: UACC-257 melanoma
SF-268 CNS = test system: SF-268 CNS
T-47D breast = test system: T-47D breast
SW-620 colon = test system: SW-620 colon
RXF 393 renal = test system: RXF 393 renal
MDA-MB-435 = test system: MDA-MB-435
HCT-15 colon = test system: HCT-15 colon
UACC-62 melanoma = test system: UACC-62 melanoma
SNB-75 CNS = test system: SNB-75 CNS

For `C#C[C@]1(O)CC[C@H]2[C@@H]3CC=C4c5sc(N6CCN(C)CC6)nc5CC[C@]4(C)[C@H]3CC[C@@]21C`, which GI50 (SN12C renal) is on record?
The GI50 was 1770 nM.

And the TGI (SN12C renal)?
The TGI was 3430 nM.

What about the GI50 (MDA-MB-231 breast) of the same molecule?
The GI50 was 1930 nM.

And the TGI (MDA-MB-231 breast)?
Its TGI is 3730 nM.

What about the GI50 (A549 NSCLC) of the same molecule?
The GI50 was 1830 nM.

What about the TGI (A549 NSCLC) of the same molecule?
The TGI was 3390 nM.

And the GI50 (OVCAR-5 ovarian)?
The GI50 was 1820 nM.

And the TGI (OVCAR-5 ovarian)?
Its TGI is 3530 nM.

What about the GI50 (ACHN renal) of the same molecule?
The GI50 was 1790 nM.

What about the TGI (ACHN renal) of the same molecule?
The TGI was 3250 nM.

And the GI50 (SK-OV-3 ovarian)?
Its GI50 is 1680 nM.

What about the TGI (SK-OV-3 ovarian) of the same molecule?
Its TGI is 3180 nM.

What about the GI50 (KM12 colon) of the same molecule?
Its GI50 is 1920 nM.

And the TGI (KM12 colon)?
Its TGI is 4080 nM.

What about the GI50 (MOLT-4 leukemia) of the same molecule?
Its GI50 is 1890 nM.

And the TGI (MOLT-4 leukemia)?
The TGI was 4660 nM.

And the GI50 (SNB-19 CNS)?
The GI50 was 1810 nM.

And the TGI (SNB-19 CNS)?
Its TGI is 3750 nM.

What about the GI50 (HOP-62 NSCLC) of the same molecule?
The GI50 was 1710 nM.

What about the TGI (HOP-62 NSCLC) of the same molecule?
Its TGI is 3270 nM.

What about the GI50 (IGROV1 ovarian) of the same molecule?
The GI50 was 1870 nM.

What about the TGI (IGROV1 ovarian) of the same molecule?
Its TGI is 3620 nM.

What about the GI50 (NCI-H23 lung) of the same molecule?
Its GI50 is 1760 nM.

And the TGI (NCI-H23 lung)?
Its TGI is 3590 nM.

And the GI50 (PC-3 prostate)?
Its GI50 is 1610 nM.

And the TGI (PC-3 prostate)?
Its TGI is 3070 nM.

What about the GI50 (BT-549 breast) of the same molecule?
Its GI50 is 1900 nM.

And the TGI (BT-549 breast)?
Its TGI is 3950 nM.

And the GI50 (CCRF-CEM leukemia)?
The GI50 was 2230 nM.

And the TGI (CCRF-CEM leukemia)?
The TGI was 4740 nM.

What about the GI50 (MALME-3M melanoma) of the same molecule?
Its GI50 is 1760 nM.

And the TGI (MALME-3M melanoma)?
Its TGI is 3280 nM.

And the GI50 (COLO 205 colon)?
The GI50 was 1980 nM.

And the TGI (COLO 205 colon)?
Its TGI is 3830 nM.

What about the GI50 (EKVX NSCLC) of the same molecule?
The GI50 was 1840 nM.

What about the TGI (EKVX NSCLC) of the same molecule?
The TGI was 3830 nM.

And the GI50 (SF-539 CNS)?
Its GI50 is 1450 nM.

What about the TGI (SF-539 CNS) of the same molecule?
The TGI was 2900 nM.

What about the GI50 (U251 CNS) of the same molecule?
The GI50 was 1510 nM.

And the TGI (U251 CNS)?
The TGI was 2870 nM.

And the GI50 (HS 578T breast)?
The GI50 was 2420 nM.

What about the TGI (HS 578T breast) of the same molecule?
Its TGI is 8440 nM.

What about the GI50 (LOX IMVI melanoma) of the same molecule?
Its GI50 is 1700 nM.

What about the TGI (LOX IMVI melanoma) of the same molecule?
The TGI was 3330 nM.

What about the GI50 (NCI-H460 lung) of the same molecule?
The GI50 was 1990 nM.

What about the TGI (NCI-H460 lung) of the same molecule?
Its TGI is 3800 nM.

And the GI50 (OVCAR-8 ovarian)?
Its GI50 is 1810 nM.

What about the TGI (OVCAR-8 ovarian) of the same molecule?
The TGI was 3410 nM.

What about the GI50 (HCT-116 colon) of the same molecule?
Its GI50 is 1780 nM.

And the TGI (HCT-116 colon)?
Its TGI is 3380 nM.

What about the GI50 (M14 melanoma) of the same molecule?
The GI50 was 1540 nM.

And the TGI (M14 melanoma)?
The TGI was 2970 nM.

And the GI50 (OVCAR-4 ovarian)?
Its GI50 is 1940 nM.

And the TGI (OVCAR-4 ovarian)?
The TGI was 4020 nM.

And the GI50 (786-0 renal)?
Its GI50 is 1700 nM.

What about the TGI (786-0 renal) of the same molecule?
The TGI was 3150 nM.

What about the GI50 (DU-145 prostate) of the same molecule?
The GI50 was 2230 nM.

What about the TGI (DU-145 prostate) of the same molecule?
Its TGI is 5130 nM.

What about the GI50 (K-562 leukemia) of the same molecule?
The GI50 was 1340 nM.

What about the TGI (K-562 leukemia) of the same molecule?
The TGI was 4500 nM.

And the GI50 (SR leukemia)?
Its GI50 is 1560 nM.

What about the TGI (SR leukemia) of the same molecule?
Its TGI is 5390 nM.

What about the GI50 (NCI/ADR-RES ovarian) of the same molecule?
The GI50 was 2180 nM.

And the TGI (NCI/ADR-RES ovarian)?
The TGI was 5710 nM.

And the GI50 (NCI-H226 lung)?
Its GI50 is 9830 nM.

What about the TGI (NCI-H226 lung) of the same molecule?
Its TGI is 28800 nM.

What about the GI50 (TK-10 renal) of the same molecule?
Its GI50 is 2360 nM.

And the TGI (TK-10 renal)?
Its TGI is 4550 nM.

And the GI50 (NCI-H522 lung)?
Its GI50 is 1480 nM.

What about the TGI (NCI-H522 lung) of the same molecule?
The TGI was 3300 nM.

And the GI50 (SF-295 CNS)?
The GI50 was 1870 nM.

What about the TGI (SF-295 CNS) of the same molecule?
The TGI was 3960 nM.

What about the GI50 (SK-MEL-5 melanoma) of the same molecule?
The GI50 was 1740 nM.

And the TGI (SK-MEL-5 melanoma)?
The TGI was 3200 nM.

What about the GI50 (UO-31 renal) of the same molecule?
Its GI50 is 1740 nM.

What about the TGI (UO-31 renal) of the same molecule?
Its TGI is 3170 nM.

And the GI50 (HT29 colon)?
The GI50 was 1760 nM.

What about the TGI (HT29 colon) of the same molecule?
The TGI was 4180 nM.

And the GI50 (RPMI-8226 leukemia)?
The GI50 was 1600 nM.

What about the TGI (RPMI-8226 leukemia) of the same molecule?
Its TGI is 4160 nM.

What about the GI50 (CAKI-1 renal) of the same molecule?
The GI50 was 1560 nM.

And the TGI (CAKI-1 renal)?
Its TGI is 3080 nM.

What about the GI50 (HCC-2998 colon) of the same molecule?
The GI50 was 2060 nM.

What about the TGI (HCC-2998 colon) of the same molecule?
Its TGI is 4350 nM.

And the GI50 (MCF7 breast)?
The GI50 was 1830 nM.

And the TGI (MCF7 breast)?
Its TGI is 3800 nM.

What about the GI50 (SK-MEL-28 melanoma) of the same molecule?
Its GI50 is 1680 nM.

And the TGI (SK-MEL-28 melanoma)?
The TGI was 3190 nM.

And the GI50 (A498 renal)?
The GI50 was 4250 nM.

What about the TGI (A498 renal) of the same molecule?
The TGI was 16900 nM.

And the GI50 (UACC-257 melanoma)?
The GI50 was 1770 nM.

And the TGI (UACC-257 melanoma)?
Its TGI is 3270 nM.

And the GI50 (SF-268 CNS)?
The GI50 was 2010 nM.

What about the TGI (SF-268 CNS) of the same molecule?
The TGI was 4310 nM.

And the GI50 (T-47D breast)?
Its GI50 is 12100 nM.

What about the TGI (T-47D breast) of the same molecule?
Its TGI is 30100 nM.

And the GI50 (SW-620 colon)?
The GI50 was 1810 nM.

What about the TGI (SW-620 colon) of the same molecule?
The TGI was 3450 nM.

And the GI50 (RXF 393 renal)?
Its GI50 is 1420 nM.

And the TGI (RXF 393 renal)?
The TGI was 3050 nM.

What about the GI50 (MDA-MB-435) of the same molecule?
Its GI50 is 1160 nM.

What about the TGI (MDA-MB-435) of the same molecule?
The TGI was 2530 nM.

And the GI50 (HCT-15 colon)?
The GI50 was 1250 nM.

What about the TGI (HCT-15 colon) of the same molecule?
The TGI was 2930 nM.

What about the GI50 (UACC-62 melanoma) of the same molecule?
The GI50 was 1790 nM.

And the TGI (UACC-62 melanoma)?
Its TGI is 3420 nM.

And the GI50 (SNB-75 CNS)?
Its GI50 is 1690 nM.

What about the TGI (SNB-75 CNS) of the same molecule?
Its TGI is 3870 nM.
